Assay results published in patent publication US20130028937A1 (LABORATORIOS DEL DR. ESTEVE, S.A., priority 2009, published 2013).

Columns and labels:
[1] = tested on: incision-induced mechanical allodynia in the rat hind paw; test: Mechanical allodynia (von Frey filaments) in postoperative pain model after paw incision; format: in vivo; settings: for efficacy on mechanical allodynia (in words): dose-response curve
Description: Following plantar incision, rats show decreases in response thresholds graded von Frey filaments (mechanical hypersensitivity) (Brennan et al., Pain 1996, 64, 493).
Male, Wistar rats (120-160 g, Harlan, Italy) were housed in a climate-controlled room for at least 5 days prior to testing. Food and water were available ad libitum up to test time.
The dosing volume was 10 ml/kg. The antiallodynic response of the animal was subsequently evaluated 60 min after drug administration.
Rats were anaesthetized with 3% isofluorane for veterinary use, employing an Ohmeda vaporizer and an anaesthesia chamber. Anaesthesia was kept during the surgical operation by a tube which directs the isoflurane vapours to the animal's snout. Once the rats were anaesthetised, they were laid down in a prone position and their right hindpaws were cleaned out with alcohol. Then, a 1 cm longitudinal incision was made with a number 23 scalpel, through skin and fascia of the plantar aspect of the paw, starting 0.5 cm from the proximal edge of the heel and extending toward the toes. Therefore, both superficial (skin) and deep (muscle) tissues and nerves were injured. Finally, the skin of the paw was stitched with a suturing stitch with breaded silk (3.0) and the wound was cleaned out with povidone.
The drugs were tested 4 hours after the surgery (plantar incision); 60 minutes after the administration of the product, one behavioural endpoint was evaluated: mechanical hypersensitivity or allodynia.
Mechanical allodynia was tested using von Frey filaments. Animals were placed in methacrylate cylinders on an elevated surface, with metallic mesh floor perforated in order to apply the filaments. After an acclimation period of about 30 minutes within the cylinders, both hindpaws were stimulated (the injured and the non-injured paw, serving the latter as control), starting with the lowest force filament (0.4 g) and reaching up to a 15 g filament. The animal's response to pain was manifested by the withdrawal of the paw as a consequence of the painful stimulus caused by a filament. The pressure (force in grams) threshold eliciting the withdrawal of the paw was recorded.
The method is based on the comparison of the effect of several doses of the combination at a determined ratio with respect to the effects achieved using different doses of each of the two agents. […] Where it is established that Zt<Zadd for a specific fixed-ratio, then that composition has a synergistic effect. The theoretical additive dose (Zadd) for the co-crystal was then calculated and compared with the experimental ED50 of the combination (Zt) as described in Tallarida, Drug synergism 2001, 298, 865-872 [10].

[2] = tested on: locomotor activity in mice; test: Locomotor activity in actimeter cages; settings: CD-1 mice, 30 min after administration
Description: Male, CD-1 mice (14-18 g, Charles River) were housed in a climate-controlled room for at least 5 days prior to testing. Food and water were available ad libitum up to test time.
The dosing volume was 10 ml/kg.
Eight standard actimeter cages (Linton Instrumentation, Inc.) equipped with infrared beams for the detection of movement were used. After administering the compounds, the animals were returned to their homecages and then placed in the locomotor activity cages 30 min later. Moving time was measured during 30 min, with readings performed every 5 min.

[3] = Wistar rats, intraperitoneal, 4 hours after plantar incision, 60 min after administration

Structure (SMILES) | efficacy on mechanical allodynia (in words) [1, 3] | effect on locomotor activity (moving time) ([2]; intraperitoneal, 160 mg/kg, p<0.05 compared with vehicle) | effect on locomotor activity (moving time) ([2]; intraperitoneal, doses lower than 160 mg/kg) | inhibition of mechanical allodynia compared with each single drug at equivalent doses ([1]; Wistar rats, intraperitoneal, 60 min after administration) | isobolographic analysis of interaction (Zt vs Zadd) ([1]; molar ratio 1:1, experimental ED50 (Zt) vs theoretical Zadd, p>0.05 Student's t-test) | effect on locomotor activity (moving time) ([2]; intraperitoneal, 20, 40, 80 and 160 mg/kg, p>0.05) | maximum efficacy on mechanical allodynia ([1]; Wistar rats, intraperitoneal, 4 hours after plantar incision, 60 min after administration, ceiling effect) [%] | effect on locomotor activity (moving time) ([2]; intraperitoneal, 80 mg/kg, p<0.001) | effect on locomotor activity (moving time) ([2]; intraperitoneal, doses lower than 80 mg/kg)
Cc1ccc(-c2cc(C(F)(F)F)nn2-c2ccc(S(N)(=O)=O)cc2)cc1 [Celecoxib, 4-[5-(4-methylphenyl)-3-(trifluoromethyl)pyrazol-1-yl]benzenesulfonamide] | full efficacy | significant side-effects decreasing | No effects | – | – | – | – | – | –
COc1ccc(C(CN(C)C)C2(O)CCCCC2)cc1.Cc1ccc(-c2cc(C(F)(F)F)nn2-c2ccc(S(N)(=O)=O)cc2)cc1 (racemic) [Celecoxib—(rac)-venlafaxine co-crystal (1:1)] | full efficacy | – | – | superior benefit | additive interaction | did not show any significant side-effect | – | – | –
COc1ccc(C(CN(C)C)C2(O)CCCCC2)cc1 (racemic) [Venlafaxine, (rac)-1-[2-dimethylamino-1-(4-methoxyphenyl)-ethyl]cyclohexanol] | – | – | – | – | – | – | 58.40 | significant side-effects increasing | no statistically significant effects
